Several values for one entry are separate records, joined by “and”; a condition that tells them apart may be missing. Equal entries are not always repeated.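 Briefly, cells in 96-well plates were exposed to five compound concentrations for 48 h, and endpoints were estimated by linear interpolation. GI50 is the concentration that inhibits growth by half.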 Activity calls are given as the source filed them. Rule as the data show it: active = GI50 up to about 1.1 µM and inactive = higher.
Assays:
Assay in all cases: NCI tumour cell line growth inhibition, 48 h
EKVX = tested on: EKVX
MOLT-4 = tested on: MOLT-4
OVCAR-5 = tested on: OVCAR-5
CAKI-1 = tested on: CAKI-1
U-251 = tested on: U-251
Malme-3M = tested on: Malme-3M
HOP-92 = tested on: HOP-92
SNB-19 = tested on: SNB-19
UO-31 = tested on: UO-31
LOX IMVI = tested on: LOX IMVI
786-0 = tested on: 786-0
NCI-H23 = tested on: NCI-H23
NCI-H522 = tested on: NCI-H522
OVCAR-3 = tested on: OVCAR-3
SK-MEL-28 = tested on: SK-MEL-28
HOP-62 = tested on: HOP-62

Measured: GI50

c1ccc(C2Nc3ccccc3C3OCCCC23)cc1 (stereo unspecified)
inactive: EKVX 20.9 µM | MOLT-4 24.9 µM | OVCAR-5 38.7 µM | CAKI-1 2.47 µM | U-251 17.8 µM | Malme-3M 30.7 µM | HOP-92 26.4 µM | SNB-19 31.3 µM | UO-31 27 µM | LOX IMVI 12.8 µM | 786-0 27.6 µM | NCI-H23 32.8 µM

O=S(=O)(c1ccccc1)C1(C2(S(=O)(=O)c3ccccc3)CCN=N2)CCN=N1 (stereo unspecified)
inactive: NCI-H522 > 100 µM | EKVX > 100 µM | OVCAR-3 > 100 µM | MOLT-4 > 100 µM | OVCAR-5 > 100 µM | CAKI-1 > 100 µM | U-251 > 100 µM | SK-MEL-28 > 100 µM | Malme-3M > 100 µM | SNB-19 > 100 µM | UO-31 > 100 µM | LOX IMVI > 100 µM | 786-0 > 100 µM | NCI-H23 > 100 µM

Cc1ccc(/C=N/NS(=O)(=O)c2ccccc2)c(C)c1
inactive: HOP-62 > 100 µM | EKVX > 100 µM | OVCAR-3 > 100 µM | MOLT-4 > 100 µM | OVCAR-5 > 100 µM | CAKI-1 > 100 µM | U-251 > 100 µM | SK-MEL-28 > 100 µM | Malme-3M > 100 µM | HOP-92 > 100 µM | UO-31 > 100 µM | LOX IMVI > 100 µM | 786-0 > 100 µM | NCI-H23 > 100 µM

CCC(C)NC1=C(NC(C)=O)C(=O)c2ccccc2C1=O (stereo unspecified)
inactive: HOP-62 > 75 µM | EKVX > 75 µM | OVCAR-3 40.6 µM | MOLT-4 74 µM | OVCAR-5 > 75 µM | CAKI-1 > 75 µM | U-251 > 75 µM | SK-MEL-28 > 75 µM | Malme-3M > 75 µM | HOP-92 > 75 µM | SNB-19 > 75 µM | UO-31 > 75 µM | LOX IMVI 15.6 µM | 786-0 > 7.5 µM | NCI-H23 > 75 µM

O=C(O)CCSC(=O)Nc1cccc(F)c1
inactive: HOP-62 14.3 µM | EKVX 3.55 µM | OVCAR-3 40.6 µM | MOLT-4 > 100 µM | OVCAR-5 > 100 µM | U-251 > 100 µM | SK-MEL-28 > 100 µM | SNB-19 > 100 µM | UO-31 > 100 µM | LOX IMVI > 100 µM | 786-0 > 100 µM | NCI-H23 > 100 µM

COC(=O)[C@]1(C)CCC[C@]2(C)C3CC4OOC3(C=C4C(C)C)CCC21 (stereo partly specified)
inactive: NCI-H522 1.78 µM | HOP-62 24.5 µM | EKVX 16.7 µM | OVCAR-3 31.8 µM | MOLT-4 16.9 µM | OVCAR-5 19.6 µM | CAKI-1 21.9 µM | U-251 19.8 µM | Malme-3M 20.8 µM | SNB-19 17.4 µM | UO-31 15.2 µM | LOX IMVI 2.77 µM | 786-0 5.51 µM | NCI-H23 18.8 µM

O=C1c2ccccc2-c2c3c(cc4ccnc1c24)OCO3 [LIRIODENINE]
inactive: HOP-62 3.89 µM | EKVX 3.46 µM and 5.15 µM | OVCAR-3 9.25 µM and 10.5 µM | MOLT-4 3.38 µM and 3.67 µM | OVCAR-5 16.9 µM and 11.5 µM | CAKI-1 3.63 µM and 3.77 µM | U-251 6.32 µM and 5.45 µM | SK-MEL-28 5.58 µM and 5.27 µM | Malme-3M 3.59 µM and 3.03 µM | HOP-92 8.69 µM and 5.61 µM | SNB-19 5.68 µM and 8 µM | UO-31 4.94 µM and 3.42 µM | LOX IMVI 3.77 µM and 4.22 µM | 786-0 4.25 µM and 7.69 µM | NCI-H23 4.05 µM and 5.4 µM
